One data set relates to mice. As to the kind of experiment: Acute toxicity in mice. To be noted: 1 g/kg (i.v.). Format: in vivo. The source says: ACUTE TOXICITY IN MICE of FR-900156
1 g/kg (i.v.): no toxicity.

For another data set, the system named is Mice (DDY male 5-6 W). As to the kind of experiment: Blood stream clearance of carbon. Format: in vivo. How it is done: 1. Carbon suspension. Rotoring drawing ink (170 mg carbon/ml.) was diluted to 1/5 of the original concentration in saline containing 1% gelatin.
2. 0.1% aqueous sodium carbonate solution.
Mice (DDY male 5-6 W) were injected via the tail vein with a dose of 0.01 ml/g body weight of carbon. Blood samples were taken by means of a pointed capillary pippet calibrated to hold a 50 μl and previously washed in heparin. This was plunged into the retrooribital venous sinus at the nasal angle of the eye. The samples were removed at 3 and 6 min. The blood was immediately discharged into 3.0 ml. of the sodium carbonate solution. This hemolyszed the blood and allowed the quantitation of carbon. The samples were then read in a spectrophotometer at 660 nm, the log concentration being obtained from a previously determined standard curve. The clearance value K may be determined by plotting log carbon concentration against time according to the following relationship; [formula] in which T1 and T2 represent the time in min when the sample were withdrawn and C1 and C2 represent the concentrations of carbon in the blood at the time T1 and T2, respectively.
The aqueous solution of the test compound as given was administered subcutaneously to mice. Twenty four hours later, blood stream clearance of carbon was measured. K value obtained with treated mice was compared with that of control mice.

With `C[C@H](NC(=O)[C@@H](C)O)C(=O)N[C@H](CCC(=O)N[C@@H](CCC[C@@H](N)C(=O)O)C(=O)NCC(=O)O)C(=O)O` [FR-900156 substance], the “Acute toxicity in mice” value in the data set with mice is reported as “no toxicity”. On to `c1ccc([C@H]2CN3CCSC3=N2)cc1` [Levamisol], for which the “Ktreated /Kcontrol” value with Mice (DDY male 5-6 W) (dose 1 mg/mouse) is given as 0.5; in the data set with Mice (DDY male 5-6 W) (dose 10 mg/mouse) it was “death”.

(Values after patent publication US4666890A, “Peptide, process for preparation thereof and use thereof” (priority 1978, dated 1987).)
